Laboratory results: US20200397808A1, “TREATMENT OF STEROID-RESISTANT DISEASE USING AN ANTHOCYANIN AND A CORTICOSTEROID” (THE CLEVELAND CLINIC FOUNDATION, priority 2017, published 2020)

Legend:
[1] = target: T1, IL-17A and IL-17ARA (IL-17A receptor subunit) interaction (Homo sapiens, UniProt Q96F46); test: IL-17A binding to IL-17ARA inhibition; settings: read-out: IC50, inhibitory activity for IL-17A binding to IL-17ARA
T1 sequence (Q96F46 33-320 limits assumed): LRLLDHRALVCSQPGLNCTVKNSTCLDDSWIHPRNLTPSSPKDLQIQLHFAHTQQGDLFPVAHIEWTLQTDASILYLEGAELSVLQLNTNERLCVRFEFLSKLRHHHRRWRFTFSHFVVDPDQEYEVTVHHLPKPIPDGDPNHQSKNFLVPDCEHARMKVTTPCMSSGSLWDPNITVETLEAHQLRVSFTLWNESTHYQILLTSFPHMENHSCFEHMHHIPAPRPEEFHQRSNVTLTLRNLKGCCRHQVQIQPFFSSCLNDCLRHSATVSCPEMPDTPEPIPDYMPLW

[2] = test system: HDM-induced neutrophilic airway inflammation; test: HDM/CFA-induced acute neutrophilic steroid-resistant severe asthma model; type: in vivo, C57BL/6 mice; design: airway inflammation (BAL cell count, inflammatory gene expression in the lung): dose or concentration left out as unconfirmed
Method: FIGS. 1A and 1B provide graphs showing C3G attenuates neutrophilic airway inflammation in a HDM-induced acute asthma model. A. HDM/CFA-induced neutrophilic asthma in 8-week female C57BL/6 mice (n=8 per group). B. Shown are total and differential cell counts in BAL cell count. HDM, house dust mite. […] DEX and C3G were delivered to mice 24 h before HDM sensitization and 1 h before HDM challenge. Mice were sacrificed after HDM challenge. i.p., intraperitoneally; i.n. intranasally.
FIGS. 2A and 2B provide graphs showing Oral C3G attenuates neutrophilic airway inflammation in a HDM-induced acute asthma model. A. HDM/CFA-induced neutrophilic asthma in 8-week female C57BL/6 mice (n=5 per group). B. Shown are total and differential cell counts in BAL cell count. HDM, house dust mite. Treatment groups: Control (DMSO); Low DEX (0.3 mg/kg BW, i.p.); Low DEX+10 mg C3G (per mouse); Low DEX+20 mg C3G (per mouse); DEX and C3G were delivered to mice 24 h before HDM sensitization and 1 h before HDM challenge. Mice were sacrificed after HDM challenge.
C3G attenuates neutrophilic airway inflammation in a HDM-induced acute asthma model. House dust mite (HDM), a natural allergen to which asthmatics are often sensitized, can induce neutrophilic airway inflammation, which is often associated with steroid-resistant severe asthma. The inventors have established an HDM/CFA-induced neutrophilic severe asthma model. The ability of C3G in combination with low-dose DEX (low DEX) was evaluated in alleviating neutrophilic airway inflammation in a HDM-induced steroid-resistant severe asthma model. Eight-week WT C57BL/6 female mice were sensitized subcutaneously (s.c.) with HDM (100 μg per mouse) in Complete Freund's Adjuvant (CFA) on day 0 and subsequently challenged (i.n.) with HDM (100 μg per mouse) on day 14. BAL cell counting and tissue collection were performed after 24 h of last HDM challenge. […]

[3] = test system: Th17-induced neutrophilic airway inflammation; test: Th17 cell-mediated neutrophilic asthma model; type: in vivo, C57BL/6 mice; settings: C3G alone, 200 μg i.p./100 μg i.n per mouse
Method: FIGS. 3A and 3B provide graphs showing C3G attenuates neutrophilic airway inflammation in a Th17-induced asthma model. A. HDM/CFA-induced neutrophilic asthma in 8-week female C57BL/6 mice (n=5 per group). B. Shown are total and differential cell counts in BAL cell count. HDM, house dust mite. Treatment groups: Control (DMSO); Low DEX (0.3 mg/kg BW, i.p.); C3G (200 μg i.p./100 μg i.n per mouse); Low DEX/C3G. DEX and C3G were delivered to mice 1 h before HDM challenges. Mice were sacrificed after the last HDM challenge.
C3G attenuates neutrophilic airway inflammation in a Th17-induced asthma model. To further confirm the synergistic effect of DEX/C3G in IL-17A-driven asthma, the efficacy of C3G was tested in a TH17 cell-mediated neutrophilic asthma model (FIG. 3).

OC[C@H]1O[C@@H](Oc2cc3c(O)cc(O)cc3[o+]c2-c2ccc(O)c(O)c2)[C@H](O)[C@@H](O)[C@@H]1O [C3G, Cyanidin-3-glucoside]
IC50 [1]: 6.88 µM | airway inflammation (BAL cell count, inflammatory gene expression in the lung) ([2]; C3G alone): reduced to some degree | airway inflammation (BAL cell count) ([2]; oral C3G 20 mg/mouse in the presence of low DEX, versus 10 mg/mouse): did not improve the efficacy further | airway inflammation (BAL cell count) ([2]; oral C3G by gavage 10 mg/mouse in the presence of low DEX): able to inhibit airway inflammation | neutrophilic airway inflammation (BAL cell count) [3]: alleviated the inflammation dramatically
